Experimental data from patent US4833160A, “3-(3,5-di-tert-butyl-4-hydroxy benzylidene)-2-pyrrolidone and substituted derivatives thereof” (Eisai Co., Ltd., priority 1985, dated 1989).
Where two headings read alike, the source gives them in different places.

Assays:
adjuvant inflammation = experiment: Effect of lowering local surface temperature at inflammation (adjuvant inflammation, butter bacillus, hind foot); type: in vivo, male Fisher rat; conditions: Rattus norvegicus, 6 h, read-out: Dose (mg/kg) required for lowering local temperature at inflammatory site by at least 2° C.
Experimental: 0.05 ml of a suspension of butter bacillus in liquid paraffin (10 mg/ml) was injected into the sole of the right hind foot of a male Fisher rat aged six weeks to thereby induce adjuvant inflammation. After three to five days, the surface temperature of the inflammatory foot was constantly higher by 8° to 10° C. than that of a normal foot. The test compounds as described hereinbelow and control compounds (i.e. indomethacin and pyroxycam) were each suspended in a 5% aqueous solution of gum arabic and orally administered to the rat in a dose of 5 ml/kg body weight. The local surface temperature of the inflammatory site was determined after two, four and six hours according to the method of H. Shirota et al. (cf. J. Pharmacol. Methods, 12, 35-43 (1984)). The dose required for lowering the surface temperature by at least 2° C. below that prior to the administration was calculated by averaging data of two animals, thus determining the anti-inflammatory titer of each test compound.

[1] = system: carrageenan edema at foot-sole; experiment: Effect of suppressing carrageenan edema at foot-sole; type: in vivo, Male Fisher rats; conditions: 10 mg/kg, one hour before carrageenan; volume measured three hours after carrageenan injection; groups of five animals
Experimental: Male Fisher rats aged five weeks were classified into groups each having five animals. Each test compound was suspended in a 5% aqueous solution of gum arabic and administered to each rat in a dose of […] body weight. After one hour, a 1% carrageenan solution was injected into the sole of the right hind foot of the animal to thereby induce inflammation. Three hours after the carrageenan injection, the volume of the sole of each hind foot of the animal was measured to calculate the volume-gain of the foot-sole to which carrageenan was injected. The obtained data was compared with those of the control groups, thus determining the suppression ratio of the test compound. The same test compounds as used in Pharmacological Example 1 were used.

[2] = Effect of inducing gastric ulcer; type: in vivo, male Fisher rat; conditions: rat, oral, fasted 24 hours, after six hours, read-out: UD50 (50% ulcer inducing dose)
Experimental: A male Fisher rat aged seven weeks was kept fasting for 24 hours and then each test compound suspended in a 5% aqueous solution of gum arabic was orally administered thereto.

mice = experiment: Acute Toxicity Test, mice; type: in vivo; conditions: oral, male mice, after fasting 17 to 24 hours
Experimental: (§1) LD 50 of the compound B, falling within the scope of the invention, was investigated in respect to acute toxicity, using rats and mice.
(§2) *Values were calculated according to BehrensKarber method. The oral
(§3) administration was conducted after a fasting treatment for 17 to 24 hours

[3] = Acute Toxicity Test, mice; type: in vivo; conditions: mouse, in vivo
Experimental: as §1, §2, §3

[4] = Acute Toxicity Test, rats; conditions: rat, in vivo
Experimental: as §1, §2, §3

[5] = oral, suspended in 5% gum arabic, temperature after two, four and six hours, averaging data of two animals

For `CN1CCC(=Cc2cc(C(C)(C)C)c(O)c(C(C)(C)C)c2)C1=O` [Compound A, N-methyl-3-(3,5-di-tert-butyl-4-hydroxybenzylidene)-2-pyrrolidone], the minimal effective dose (adjuvant inflammation; [5]) was 1 mg/kg and the Suppression ratio [1] was 36.1.
With `CON1CCC(=Cc2cc(C(C)(C)C)c(O)c(C(C)(C)C)c2)C1=O` [Compound B, N-methoxy-3-(3,5-di-tert-butyl-4-hydroxybenzylidene)-2-pyrrolidone] the minimal effective dose (adjuvant inflammation; po) was 0.3 mg/kg, the Suppression ratio [1] was 36.4 and the TD50 at 6 h ([2]; in vivo) was 473 mg/kg. The LD50 (mice) was 4000~2000, the LD50 ([3]; ip, abdominal, female mice, confidence range 443.9~1549.3) was 805 mg/kg and the LD50 ([3]; ip, abdominal, male mice, confidence range 523~2270) was 1070 mg/kg. For the same compound, the LD50 ([3]; po, female mice, after fasting 17 to 24 hours) was 6870 mg/kg, the LD50 ([3]; sc, hypodermic, female mice) was > 4000 mg/kg and the LD50 ([3]; sc, hypodermic, male mice) was > 4000 mg/kg. The LD50 ([4]; ip, abdominal, female rats, calculated according to Behrens-Karber method (*)) was 46.9 mg/kg, the LD50 ([4]; ip, abdominal, male rats, calculated according to Behrens-Karber method (*)) was 96.7 mg/kg and the LD50 ([4]; po, female rats, after fasting 17 to 24 hours, calculated according to Behrens-Karber method (*)) was 161 mg/kg. For the same compound, the LD50 ([4]; po, male rats, after fasting 17 to 24 hours) was 354 mg/kg, the LD50 ([4]; sc, hypodermic, female rats, confidence range 124~476) was 291 mg/kg and the LD50 ([4]; sc, hypodermic, male rats, calculated according to Behrens-Karber method (*)) was 806 mg/kg.
Compound `CC(C)(C)c1cc(C=C2CCNC2=O)cc(C(C)(C)C)c1O` [Compound C, 3-(3,5-di-tert-butyl-4-hydroxybenzylidene)-2-pyrrolidone] has a minimal effective dose (adjuvant inflammation; [5]) of 0.3 mg/kg, a Suppression ratio [1] of 38.5 and a TD50 at 6 h ([2]; stomach) of 75.8 mg/kg.
For `COc1ccc2c(c1)c(CC(=O)O)c(C)n2C(=O)c1ccc(Cl)cc1` [Indomethacin, indomethacin, reference compound], the minimal effective dose (adjuvant inflammation; po) was 0.3 mg/kg, the Suppression ratio [1] was 37.7 and the TD50 at 6 h ([2]; in vivo) was 7.8 mg/kg.
Work on `CN1C(C(=O)Nc2ccccn2)=C(O)c2ccccc2S1(=O)=O` [Piroxicam, reference compound] yielded a minimal effective dose (adjuvant inflammation; [5]) of 0.3 mg/kg and a TD50 at 6 h ([2]; in vivo) of 23.1 mg/kg.
